Key:
[1] = system: SNU475 cells; experiment: Optical diffraction tomography (ODT) imaging of vesicles and organelles in SNU475 cells; assay type: cell-based, human
Method: To confirm changes in vesicles upon treatment with an autophagy modulator, SNU475 cells, which are a human hepatoma cell line, were treated with 10 μM thapsigargin, which is an autophagy activator, and then the changes in vesicles in the cells were examined.
More specifically, a SNU475 cell line was prepared in a TomoDish and the SNU475 cells were treated with 10 μM thapsigargin, and then optical diffraction tomography (ODT) images were generated by using HT-2H fluorescence holotomography (Tomocube).
SNU475 cells were treated with 10 μM thapsigargin to induce ER stress, and then changes in the refractive index and radius of vesicles produced in the cells were measured on the basis of images confirmed in Example 1, and the results thereof are shown in FIG. 2. In addition, SNU475 cells were treated with 10 μM thapsigargin, and the number and volume of vesicles in the SNU475 cells treated with thapsigargin were observed over time for 2 hours, and the results thereof are shown in FIG. 3.
To confirm statistical changes in the density and refractive index of vesicles and organelles upon treatment with thapsigargin, the densities and refractive indices of cells before and after SNU475 cells were treated with thapsigargin (10 μM) were compared. In addition, to confirm changes in the densities of organelles upon treatment with thapsigargin, the refractive indices of a nucleolus (No), an endoplasmic reticulum (ER), a cytosol (Cyt), and a plasma membrane (PM) were measured.
To confirm whether the same results as the case of thapsigargin can be obtained upon treatment with autophagy modulators other than thapsigargin, SNU475 cells were treated with each of CPA (20 μM) and TC (60 ug/mL) to induce ER stress, and then changes in vesicles produced in the cells were observed using HT-2H fluorescence holotomography (Tomocube). For observation, optical diffraction tomography (ODT) images 10 hours after treatment with CPA and ODT images 2 hours after treatment with TC were generated, and the results thereof are shown in FIG. 8.

[2] = system: SNU475 cells; experiment: Fluorescent tracker (ER-tracker, lysosome-tracker, mito-tracker) imaging by super-resolution microscopy (Airyscan); assay type: cell-based, human
Method: Changes in the endoplasmic reticulum and lysosomes were measured using a confocal microscope and fluorescent trackers. As the fluorescent trackers, ER-tracker, which enables the specific observation of only the endoplasmic reticulum, and lysosome-tracker, which enables the specific observation of only lysosomes, were used.
Specifically, SNU475 cells were treated with thapsigargin (10 μM) and then stained with ER-tracker or lysosome-tracker, the kinetics of the endoplasmic reticulum and lyosomes were analyzed by super-resolution microscopy (Airyscan), and the results thereof are shown in FIG. 5.
To confirm that high-density vesicles produced upon treatment with thapsigargin are specific to the endoplasmic reticulum, the kinetics of mitochondria were analyzed in the same manner as in 4.1 above by using mito-tracker, which is a mitochondria-specific tracker, and the results thereof are shown in FIG. 6.

[3] = system: SNU475 cells; experiment: ODT setup linking three-dimensional ODT imaging and two-dimensional fluorescence; assay type: cell-based, human; conditions: SNU475 cells after treatment with thapsigargin, ODT plus 2D fluorescence
Method: Additionally, changes in the endoplasmic reticulum and lysosomes in SNU475 cells treated with thapsigargin were analyzed using an ODT setup that can link three-dimensional ODT imaging and two-dimensional fluorescence. […] It was also confirmed that vesicles were produced in the ER region, followed by fusion with lysosomes.

[4] = system: CCPG1; experiment: Colocalization of ER-phagy receptors with LC3 by immunofluorescence (IF); assay type: cell-based; conditions: 10 μM thapsigargin, IF (FIG. 7)
Method: (§1) To measure the activation levels of an autophagy marker and an ER-phagy marker after treatment with thapsigargin, the colocalization of ER-phagy receptors was measured.
(§2) More specifically, after treatment with thapsigargin (10 μM), the activation of CCPG1, FAM134B, RTN3, and SEC62 was examined by immunofluorescence (IF) analysis, and then the results thereof are shown in FIG. 7.

[5] = system: FAM134B; experiment: as above; assay type: cell-based; conditions: 10 μM thapsigargin, IF (FIG. 7)
Method: as §1, §2

[6] = system: RTN3; experiment: as above; assay type: cell-based; conditions: 10 μM thapsigargin, IF (FIG. 7)
Method: as §1, §2

[7] = system: SEC62; experiment: as above; assay type: cell-based; conditions: 10 μM thapsigargin, IF (FIG. 7)
Method: as §1, §2

[8] = 10 μM thapsigargin, observed for 2 hours (FIG. 3)

C/C=C(/C)C(=O)O[C@H]1C(C)=C2[C@H]([C@@H]1OC(=O)CCCCCCC)[C@@](C)(OC(C)=O)C[C@H](OC(=O)CCC)[C@@]1(O)[C@H]2OC(=O)[C@@]1(C)O [thapsigargin]
change in the refractive index of vesicles over time ([1]; 10 μM thapsigargin (FIG. 2A)): decreased over time | change in the radius of vesicles over time ([1]; 10 μM thapsigargin (FIG. 2B)): increased over time | ER-phagy induction ([1]; 10 μM thapsigargin (FIG. 4)): induced | density of induced vesicles compared with the endoplasmic reticulum ([1]; 10 μM thapsigargin (FIG. 4)): higher density than the endoplasmic reticulum | generation of high-density vesicles ([1]; 10 μM thapsigargin, ODT images (FIG. 1)): high-density vesicles were generated | change in the total number of vesicles over time [1, 8]: decreased over time | change in volume of vesicles over time [1, 8]: increased over time | density of the endoplasmic reticulum upon treatment ([1]; before and after 10 μM thapsigargin (FIG. 4C)): decreased | production of vesicles and lysosomes containing ER components ([2]; 10 μM thapsigargin, ER-tracker or lysosome-tracker (FIG. 5)): vesicles and lysosomes that contain ER components were produced | time difference of production of large lysosomes relative to the ER ([2]; 10 μM thapsigargin, lysosome-tracker (FIG. 5B)): about 15 minutes | mitochondrial components in high-density vesicles ([2]; thapsigargin, mito-tracker (FIG. 6)): did not include mitochondrial components | colocalization of high-density vesicles produced in the cytoplasm [3]: specifically colocalized with the endoplasmic reticulum and lysosomes | activation of CCPG1 through colocalization with LC3 [4]: activated | activation of FAM134B through colocalization with LC3 [5]: activated | activation of RTN3 through colocalization with LC3 [6]: activated | activation of SEC62 through colocalization with LC3 [7]: activated

tunicamycin [TC]
change in vesicles ([1]; TC 60 ug/mL, ODT images 2 hours after treatment (FIG. 8B)): the same changes in the vesicles as those upon treatment with thapsigargin occurred

— US20260092868A1, “METHOD FOR SCREENING FOR AUTOPHAGY MODULATOR” (THE ASAN FOUNDATION, priority 2022, published 2026)
